According to ChEMBL document CHEMBL5647694, “Novel orally bioavailable EZH1/2 dual inhibitors with greater antitumor efficacy than an EZH2 selective inhibitor” (Cancer Sci, 2017):

Legend:
[1] = biological target: Tyrosine-protein kinase ABL1 (Homo sapiens) (UniProt P00519); experiment: Inhibition of N-terminal His-tagged wild type human ABL (2 to 1130 residues) expressed in baculovirus-infected Sf21 cells using ABLtide as substrate at 1 uM in presence of ATP by Mobility shift assay
[2] = biological target: Tyrosine-protein kinase ABL2 (Homo sapiens) (UniProt P42684); experiment: Inhibition of N-terminal GST-fused truncated human ARG (2 to 52, 74 to 1182 residues) expressed in baculovirus-infected Sf21 cells using ABLtide as substrate at 1 uM in presence of ATP by Mobility shift assay
Sequence of Tyrosine-protein kinase ABL2 (Homo sapiens) (P42684 whole entry, the tested form may be a part): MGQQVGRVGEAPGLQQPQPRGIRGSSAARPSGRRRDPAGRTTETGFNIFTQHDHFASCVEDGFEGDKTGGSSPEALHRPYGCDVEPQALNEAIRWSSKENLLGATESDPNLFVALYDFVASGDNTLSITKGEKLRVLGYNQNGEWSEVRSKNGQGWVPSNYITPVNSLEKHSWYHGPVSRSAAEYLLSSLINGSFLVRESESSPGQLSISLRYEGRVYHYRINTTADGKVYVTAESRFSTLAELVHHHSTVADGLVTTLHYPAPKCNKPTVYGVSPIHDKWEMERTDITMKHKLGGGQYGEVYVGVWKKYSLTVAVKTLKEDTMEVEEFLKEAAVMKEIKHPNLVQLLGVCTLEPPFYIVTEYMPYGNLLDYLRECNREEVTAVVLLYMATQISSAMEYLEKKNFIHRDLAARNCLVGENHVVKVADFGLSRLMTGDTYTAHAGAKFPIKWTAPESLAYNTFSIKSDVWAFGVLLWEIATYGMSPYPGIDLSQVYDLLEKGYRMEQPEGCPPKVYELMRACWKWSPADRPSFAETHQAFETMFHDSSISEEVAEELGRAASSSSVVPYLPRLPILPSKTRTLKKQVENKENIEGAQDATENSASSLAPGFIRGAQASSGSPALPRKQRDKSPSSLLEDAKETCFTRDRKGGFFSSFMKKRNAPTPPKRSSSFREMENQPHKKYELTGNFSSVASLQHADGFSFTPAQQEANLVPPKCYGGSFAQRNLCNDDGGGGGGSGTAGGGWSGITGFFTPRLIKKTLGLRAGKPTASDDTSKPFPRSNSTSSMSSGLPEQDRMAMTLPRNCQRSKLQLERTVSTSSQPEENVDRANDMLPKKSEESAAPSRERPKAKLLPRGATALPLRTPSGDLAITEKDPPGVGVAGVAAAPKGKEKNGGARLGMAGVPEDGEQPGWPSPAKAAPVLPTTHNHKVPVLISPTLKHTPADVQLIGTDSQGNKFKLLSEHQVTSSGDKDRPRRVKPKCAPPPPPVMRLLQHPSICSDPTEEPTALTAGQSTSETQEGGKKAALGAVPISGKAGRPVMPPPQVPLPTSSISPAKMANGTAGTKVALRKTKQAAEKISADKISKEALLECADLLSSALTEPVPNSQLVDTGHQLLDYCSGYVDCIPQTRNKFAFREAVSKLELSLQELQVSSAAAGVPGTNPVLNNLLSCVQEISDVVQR

[3] = biological target: Ephrin type-A receptor 3 (Homo sapiens) (UniProt P29320); experiment: Inhibition of N-terminal GST-fused human EPHA3 cytoplasmic domain (579 to 983 residues) expressed in baculovirus-infected Sf21 cells using Blk/Lyntide as substrate at 1 uM in presence of ATP by Mobility shift assay
[4] = biological target: Ephrin type-A receptor 5 (Homo sapiens) (UniProt P54756); experiment: Inhibition of N-terminal GST-fused human EPHA5 catalytic domain (662 to 948 residues) expressed in baculovirus-infected Sf21 cells using Blk/Lyntide as substrate at 1 uM in presence of ATP by Mobility shift assay
[5] = biological target: Ephrin type-A receptor 8 (Homo sapiens) (UniProt P29322); experiment: Inhibition of N-terminal GST-fused human EPHA8 catalytic domain (571 to 924 residues) expressed in baculovirus-infected Sf21 cells using Blk/Lyntide as substrate at 1 uM in presence of ATP by Mobility shift assay
Sequence of Ephrin type-A receptor 8 (Homo sapiens) (P29322 whole entry, the tested form may be a part): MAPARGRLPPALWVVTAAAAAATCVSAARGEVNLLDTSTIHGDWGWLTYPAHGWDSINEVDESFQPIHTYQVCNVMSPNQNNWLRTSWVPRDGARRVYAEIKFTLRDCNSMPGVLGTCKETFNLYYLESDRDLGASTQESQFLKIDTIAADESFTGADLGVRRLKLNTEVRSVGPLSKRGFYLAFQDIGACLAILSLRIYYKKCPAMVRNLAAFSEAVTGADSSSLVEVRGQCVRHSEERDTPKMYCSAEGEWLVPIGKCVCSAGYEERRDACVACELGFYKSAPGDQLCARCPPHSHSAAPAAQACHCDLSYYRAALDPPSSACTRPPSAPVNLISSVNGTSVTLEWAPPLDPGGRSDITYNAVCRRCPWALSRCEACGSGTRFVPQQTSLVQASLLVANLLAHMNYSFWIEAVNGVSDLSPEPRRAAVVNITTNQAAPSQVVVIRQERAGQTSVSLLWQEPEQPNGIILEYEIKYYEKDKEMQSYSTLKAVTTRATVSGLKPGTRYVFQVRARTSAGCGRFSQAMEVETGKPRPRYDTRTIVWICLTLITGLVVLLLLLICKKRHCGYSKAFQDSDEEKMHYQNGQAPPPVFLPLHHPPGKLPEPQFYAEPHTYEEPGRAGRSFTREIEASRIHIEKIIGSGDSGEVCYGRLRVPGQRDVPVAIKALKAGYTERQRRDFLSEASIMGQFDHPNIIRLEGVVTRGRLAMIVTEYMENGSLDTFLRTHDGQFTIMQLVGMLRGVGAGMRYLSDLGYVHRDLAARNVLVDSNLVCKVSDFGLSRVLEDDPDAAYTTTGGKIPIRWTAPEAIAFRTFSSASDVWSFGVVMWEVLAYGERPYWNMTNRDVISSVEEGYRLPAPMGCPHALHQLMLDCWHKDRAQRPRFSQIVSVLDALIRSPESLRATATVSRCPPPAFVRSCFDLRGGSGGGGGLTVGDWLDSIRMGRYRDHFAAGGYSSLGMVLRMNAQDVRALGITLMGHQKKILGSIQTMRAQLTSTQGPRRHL

[6] = biological target: Macrophage colony-stimulating factor 1 receptor (Homo sapiens) (UniProt P07333); experiment: Inhibition of N-terminal GST-fused human FMS cytoplasmic domain (538 to 972 residues) expressed in baculovirus-infected Sf21 cells using Srctide as substrate at 1 uM in presence of ATP by Mobility shift assay
[7] = biological target: Insulin-like growth factor 1 receptor (Homo sapiens) (UniProt P08069); experiment: Inhibition of N-terminal GST-fused human IGF1R cytoplasmic domain (959 to 1367 residues) expressed in baculovirus-infected Sf21 cells using IRS1 as substrate at 1 uM in presence of ATP by Mobility shift assay
[8] = biological target: Non-receptor tyrosine-protein kinase TYK2 (Homo sapiens) (UniProt P29597); experiment: Inhibition of N-terminal GST-tagged human TYK2 catalytic domain (871 to 1187 residues) expressed in baculovirus-infected Sf21 cells using Srctide as substrate at 1 uM in presence of ATP by Mobility shift assay
Sequence of Non-receptor tyrosine-protein kinase TYK2 (Homo sapiens) (P29597 whole entry, the tested form may be a part): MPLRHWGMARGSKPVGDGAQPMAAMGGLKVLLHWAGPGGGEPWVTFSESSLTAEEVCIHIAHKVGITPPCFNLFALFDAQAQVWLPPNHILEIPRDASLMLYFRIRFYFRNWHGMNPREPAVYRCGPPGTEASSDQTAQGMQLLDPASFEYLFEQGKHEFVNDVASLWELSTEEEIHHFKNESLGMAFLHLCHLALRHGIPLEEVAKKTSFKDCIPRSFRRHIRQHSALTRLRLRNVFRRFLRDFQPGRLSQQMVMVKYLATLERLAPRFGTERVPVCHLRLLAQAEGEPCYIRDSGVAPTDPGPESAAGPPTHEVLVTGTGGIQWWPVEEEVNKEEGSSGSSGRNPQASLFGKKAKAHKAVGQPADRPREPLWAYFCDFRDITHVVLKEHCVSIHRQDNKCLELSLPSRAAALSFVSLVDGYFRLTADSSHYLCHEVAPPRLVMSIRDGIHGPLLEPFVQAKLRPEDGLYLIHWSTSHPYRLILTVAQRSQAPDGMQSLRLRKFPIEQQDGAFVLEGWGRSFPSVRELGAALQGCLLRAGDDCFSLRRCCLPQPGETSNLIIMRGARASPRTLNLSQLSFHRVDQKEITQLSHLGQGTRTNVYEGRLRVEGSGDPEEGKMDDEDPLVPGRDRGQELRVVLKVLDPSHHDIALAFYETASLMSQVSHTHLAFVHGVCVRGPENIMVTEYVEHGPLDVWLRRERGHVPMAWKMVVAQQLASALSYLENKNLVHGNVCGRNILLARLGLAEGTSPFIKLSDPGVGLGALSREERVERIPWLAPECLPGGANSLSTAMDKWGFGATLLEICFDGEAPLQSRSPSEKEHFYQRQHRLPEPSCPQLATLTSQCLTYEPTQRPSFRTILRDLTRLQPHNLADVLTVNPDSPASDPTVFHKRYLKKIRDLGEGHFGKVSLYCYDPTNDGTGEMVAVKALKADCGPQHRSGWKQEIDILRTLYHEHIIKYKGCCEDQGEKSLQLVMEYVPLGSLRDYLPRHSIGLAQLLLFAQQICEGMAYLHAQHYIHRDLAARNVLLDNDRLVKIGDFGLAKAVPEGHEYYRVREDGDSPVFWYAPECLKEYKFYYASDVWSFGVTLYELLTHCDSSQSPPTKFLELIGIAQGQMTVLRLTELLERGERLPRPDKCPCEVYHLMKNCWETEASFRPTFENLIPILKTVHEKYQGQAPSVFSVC

[9] = biological target: CDK4/Cyclin D3 (Homo sapiens) (UniProt P11802+P30281); experiment: Inhibition of N-terminal GST-tagged full length human CDK4 (1 to 303 residues)/N-terminal GST-tagged human CyclinD3 (1 to 292 residues) expressed in baculovirus-infected Sf21 cells using DYRKtide-F as substrate at 1 uM in presence of ATP by Mobility shift assay
[10] = biological target: Dual specificity protein kinase CLK3 (Homo sapiens) (UniProt P49761); experiment: Inhibition of N-terminal GST-fused full length human CLK3 (1 to 490 residues) expressed in baculovirus expression system using DYRKtide-F as substrate at 1 uM in presence of ATP by Mobility shift assay
[11] = biological target: Dual specificity tyrosine-phosphorylation-regulated kinase 1B (Homo sapiens) (UniProt Q9Y463); experiment: Inhibition of N-terminal GST-fused full length human DYRK1B (1 to 629 residues) expressed in baculovirus expression system using DYRKtide-F as substrate at 1 uM in presence of ATP by Mobility shift assay
[12] = biological target: Inhibitor of nuclear factor kappa-B kinase subunit beta (Homo sapiens) (UniProt O14920); experiment: Inhibition of N-terminal His-tagged truncated human IKK-beta (1 to 662 residues) expressed in baculovirus expression system using Modified IkBalpha-derived peptide as substrate at 1 uM in presence of ATP by Mobility shift assay
[13] = biological target: Serine/threonine-protein kinase 26 (Homo sapiens) (UniProt Q9P289); experiment: Inhibition of N-terminal GST-fused full length human MST4 (1 to 416 residues) expressed in baculovirus expression system using Moesin-derived peptide as substrate at 1 uM in presence of ATP by Mobility shift assay
Sequence of Serine/threonine-protein kinase 26 (Homo sapiens) (Q9P289 2-416 limits assumed): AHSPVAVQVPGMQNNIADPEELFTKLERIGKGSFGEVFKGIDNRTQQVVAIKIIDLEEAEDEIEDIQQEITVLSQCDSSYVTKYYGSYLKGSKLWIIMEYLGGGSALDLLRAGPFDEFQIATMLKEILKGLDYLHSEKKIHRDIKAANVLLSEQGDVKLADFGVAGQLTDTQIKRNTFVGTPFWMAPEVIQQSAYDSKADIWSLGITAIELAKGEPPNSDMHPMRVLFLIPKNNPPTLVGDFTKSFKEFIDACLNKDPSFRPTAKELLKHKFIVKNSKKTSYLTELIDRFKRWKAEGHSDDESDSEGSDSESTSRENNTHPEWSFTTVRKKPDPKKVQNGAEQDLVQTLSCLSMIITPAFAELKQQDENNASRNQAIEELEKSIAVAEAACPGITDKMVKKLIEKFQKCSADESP

[14] = biological target: Serine/threonine-protein kinase Nek4 (Homo sapiens) (UniProt P51957); experiment: Inhibition of N-terminal GST-tagged full length human NEK4 (1 to 841 residues) expressed in baculovirus expression system using GS peptide as substrate at 1 uM in presence of ATP by Mobility shift assay
[15] = biological target: Mitogen-activated protein kinase 13 (Homo sapiens) (UniProt O15264); experiment: Inhibition of N-terminal GST-fused full length human p38delta (1 to 365 residues) expressed in Escherichia coli expression system using Modified Erktide as substrate at 1 uM in presence of ATP by Mobility shift assay
Sequence of Mitogen-activated protein kinase 13 (Homo sapiens) (O15264 whole entry, the tested form may be a part): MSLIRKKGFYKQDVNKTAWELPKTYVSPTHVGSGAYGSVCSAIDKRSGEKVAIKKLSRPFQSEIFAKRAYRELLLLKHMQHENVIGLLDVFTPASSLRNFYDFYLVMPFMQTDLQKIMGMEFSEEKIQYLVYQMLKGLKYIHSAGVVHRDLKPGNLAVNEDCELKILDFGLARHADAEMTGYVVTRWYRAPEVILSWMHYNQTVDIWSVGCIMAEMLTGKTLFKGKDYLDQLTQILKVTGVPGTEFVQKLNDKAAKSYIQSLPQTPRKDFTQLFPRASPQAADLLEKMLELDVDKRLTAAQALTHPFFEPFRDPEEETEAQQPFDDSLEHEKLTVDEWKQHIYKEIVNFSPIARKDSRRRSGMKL

[16] = biological target: Serine/threonine-protein kinase PAK 1 (Homo sapiens) (UniProt Q13153); experiment: Inhibition of N-terminal GST-fused full length human PAK1 (1 to 545 residues) expressed in baculovirus expression system using LIMKtide as substrate at 1 uM in presence of ATP by Mobility shift assay
[17] = biological target: Protein kinase C gamma type (Homo sapiens) (UniProt P05129); experiment: Inhibition of N-terminal GST-fused human full length PKC-gamma(1 to 697 residues ) expressed in baculovirus expression system using PKC peptide as substrate at 1 uM in presence of ATP by Mobility shift assay
[18] = biological target: Serine/threonine-protein kinase D3 (Homo sapiens) (UniProt O94806); experiment: Inhibition of N-terminal GST-fused full length human PKD3 (1 to 890 residues) expressed in baculovirus expression system using GS peptide as substrate at 1 uM in presence of ATP by Mobility shift assay
Sequence of Serine/threonine-protein kinase D3 (Homo sapiens) (O94806 whole entry, the tested form may be a part): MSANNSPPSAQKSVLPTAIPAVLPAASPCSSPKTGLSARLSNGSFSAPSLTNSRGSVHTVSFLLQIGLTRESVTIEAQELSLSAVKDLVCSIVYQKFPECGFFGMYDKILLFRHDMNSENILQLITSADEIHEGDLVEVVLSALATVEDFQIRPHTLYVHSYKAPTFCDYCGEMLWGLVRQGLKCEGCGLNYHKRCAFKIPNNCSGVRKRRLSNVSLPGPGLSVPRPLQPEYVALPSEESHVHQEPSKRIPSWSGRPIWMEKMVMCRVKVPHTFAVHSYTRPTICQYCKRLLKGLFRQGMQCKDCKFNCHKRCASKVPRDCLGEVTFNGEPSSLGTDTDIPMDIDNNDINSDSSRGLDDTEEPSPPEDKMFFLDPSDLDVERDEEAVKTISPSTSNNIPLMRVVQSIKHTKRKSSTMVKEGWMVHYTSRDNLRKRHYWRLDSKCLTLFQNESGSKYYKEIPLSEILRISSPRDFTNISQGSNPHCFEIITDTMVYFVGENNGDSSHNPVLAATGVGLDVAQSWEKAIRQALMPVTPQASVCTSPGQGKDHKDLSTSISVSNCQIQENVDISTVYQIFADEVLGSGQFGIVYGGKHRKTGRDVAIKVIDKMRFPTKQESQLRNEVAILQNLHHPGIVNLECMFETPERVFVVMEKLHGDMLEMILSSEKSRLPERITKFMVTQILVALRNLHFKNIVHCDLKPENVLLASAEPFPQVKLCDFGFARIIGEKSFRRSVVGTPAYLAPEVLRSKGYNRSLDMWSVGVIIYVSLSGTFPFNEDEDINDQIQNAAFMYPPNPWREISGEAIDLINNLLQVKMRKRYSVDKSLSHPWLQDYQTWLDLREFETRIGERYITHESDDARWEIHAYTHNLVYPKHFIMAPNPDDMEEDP

[19] = biological target: Rho-associated protein kinase 1 (Homo sapiens) (UniProt Q13464); experiment: Inhibition of N-terminal GST-fused human ROCK1 catalytic domain (1 to 477 residues) expressed in baculovirus expression system using LIMKtide as substrate at 1 uM in presence of ATP by Mobility shift assay
[20] = biological target: Ribosomal protein S6 kinase alpha-1 (Homo sapiens) (UniProt Q15418); experiment: Inhibition of N-terminal GST-fused human full length RSK1 (1 to 735 residues) expressed in baculovirus expression system using S6K peptide(N-FL) as substrate at 1 uM in presence of ATP by Mobility shift assay
[21] = biological target: Testis-specific serine/threonine-protein kinase 3 (Homo sapiens) (UniProt Q96PN8); experiment: Inhibition of N-terminal GST-fused full length human TSSK3 (2 to 268 residues) expressed in baculovirus expression system using GS peptide as substrate at 1 uM in presence of ATP by Mobility shift assay
[22] = biological target: Serine/threonine-protein kinase WNK2 (Homo sapiens) (UniProt Q9Y3S1); experiment: Inhibition of N-terminal GST-fused human WNK2 catalytic domain (166 to 489 residues) expressed in baculovirus expression system using SPAKtide as substrate at 1 uM in presence of ATP by Mobility shift assay

Row | Structure (SMILES) | inhibition [1] [%] | inhibition [2] [%] | inhibition [3] [%] | inhibition [4] [%] | inhibition [5] [%] | inhibition [6] [%] | inhibition [7] [%] | inhibition [8] [%] | inhibition [9] [%] | inhibition [10] [%] | inhibition [11] [%] | inhibition [12] [%] | inhibition [13] [%] | inhibition [14] [%] | inhibition [15] [%] | inhibition [16] [%] | inhibition [17] [%] | inhibition [18] [%] | inhibition [19] [%] | inhibition [20] [%] | further results
1 | Cc1cc(C)c(CNC(=O)c2cc(Br)c3c(c2C)O[C@@](C)([C@H]2CC[C@H](N(C)C)CC2)O3)c(=O)[nH]1 | -5.7 | -7.4 | -8.6 | -6.3 | -7 | -0.4 | -2.9 | -2.4 | -4.5 | -2 | 2.7 | 2.1 | -0.1 | -2 | -4.7 | 2.3 | 0 | 6.7 | 3 | -6.4 | inhibition [21]: 12.1%; inhibition [22]: -2.1%
2 | Cc1cc(C)c(CNC(=O)c2cc(Cl)c3c(c2C)O[C@@](C)([C@H]2CC[C@H](N(C)C)CC2)O3)c(=O)[nH]1 [VALEMETOSTAT] | -8 | -8.7 | -4.8 | -3.4 | -5.3 | 1.3 | -4.5 | -8.8 | 2.1 | 1.6 | -9.8 | -1.8 | 0.8 | -2.9 | -6.9 | 2.6 | 1 | 3.5 | -2.5 | -0.2 | inhibition [21]: 7.3%; inhibition [22]: -3.7%
